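Cultured in 96-well plates, cells were exposed to test compound for 48 hours across five concentrations. GI50 marks 50% less growth. Definition used: TGI = concentration required for complete inhibition of growth.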
Columns and labels:
Assay in all cases: NCI tumour cell line growth inhibition, 48 h
[1] = system: COLO 205 colon
[2] = system: HCC-2998 colon
[3] = system: HCT-116 colon
[4] = system: HOP-92 NSCLC
[5] = system: HT29 colon
[6] = system: NCI-H460 lung
[7] = system: OVCAR-3 ovarian
[8] = system: SW-620 colon
[9] = system: OVCAR-5 ovarian
[10] = system: NCI/ADR-RES ovarian

Work on `CCOC(=O)NC(=O)c1cn(CCCOC(=O)NCCCCCCNC(=O)OCCCn2cc(C(=O)NC(=O)OCC)c(=O)[nH]c2=O)c(=O)[nH]c1=O` yielded a TGI [1] of 41 µM, a TGI [2] of over 100 µM and a TGI [3] of over 100 µM. For the same molecule, the TGI [4] was 45.6 µM, the TGI [5] was over 100 µM and the TGI [6] was over 100 µM. The TGI [7] was 42.4 µM and the TGI [8] was 93.6 µM.

`NC(=O)CCC(NC(=O)Cc1ccccc1)C(=O)O` (centres undefined) (tested in a mixture with another compound) gave a TGI [1] of over 8130 µM, a TGI [2] of over 8130 µM and a TGI [3] of over 8130 µM. For the same molecule, the TGI [4] was over 8130 µM, the TGI [5] was over 8130 µM and the TGI [7] was over 8130 µM. For the same molecule, the TGI [9] was over 8130 µM and the TGI [8] was over 8130 µM.

In the case of `CC1=NC(C(C)C)C(=O)O1` (centres undefined), the TGI [1] is reported as over 100 µM, the TGI [2] is reported as over 100 µM and the TGI [3] is reported as 34.1 µM. The TGI [4] was over 100 µM, the TGI [5] was over 100 µM and the TGI [6] was over 100 µM. The TGI [7] was over 100 µM, the TGI [9] was over 100 µM and the TGI [8] was 25.8 µM.

`N#Cc1cc(N(CCCl)CCCl)c([N+](=O)[O-])cc1[N+](=O)[O-]` was tested, and the TGI [1] was over 100 µM, the TGI [3] was over 100 µM and the TGI [4] was over 100 µM. It also gave a TGI [5] of over 100 µM, a TGI [6] of over 100 µM and a TGI [10] of over 100 µM. It also gave a TGI [7] of over 100 µM, a TGI [9] of over 100 µM and a TGI [8] of over 100 µM.

Work on `CC(=O)OC1CC2C(C)(C)C(=O)C=C[C@]2(C)C2CCC3(C)C(c4ccoc4)[C@@H](O)[C@H]4O[C@]43[C@]12C` (some centres undefined) yielded a TGI [1] of 37.6 µM, a TGI [2] of 29.6 µM and a TGI [3] of 51.9 µM. It also gave a TGI [4] of 39.9 µM, a TGI [5] of 40.3 µM and a TGI [6] of 36.5 µM. The TGI [7] was 31.8 µM, the TGI [9] was 50 µM and the TGI [8] was 35.4 µM.

`COc1ccc(-c2nn(-c3cccc(NC(=O)c4cccc(C(F)(F)F)c4)c3)cc2-c2ccncc2)cc1Cl` gave a GI50 [1] of 1.77 µM, a TGI [1] of 3.53 µM and a GI50 [2] of 3.29 µM. The TGI [2] was 17 µM, the GI50 [3] was 3.05 µM and the TGI [3] was over 100 µM. The GI50 [4] was 1 µM, the TGI [4] was 6.54 µM and the GI50 [5] was 2.92 µM. It also gave a TGI [5] of 27.7 µM, a GI50 [6] of 2.95 µM and a TGI [6] of over 100 µM. It also gave a GI50 [10] of 1.75 µM, a TGI [10] of 14 µM and a GI50 [9] of 12.2 µM. The TGI [9] was over 100 µM, the GI50 [8] was 4.07 µM and the TGI [8] was over 100 µM.

For `COc1cc(Nc2nc3cc(C(F)(F)F)ccc3nc2-c2ccccc2)cc(OC)c1OC`, the TGI [1] was over 100 µM, the TGI [2] was over 100 µM and the TGI [4] was 20.7 µM. It also gave a TGI [5] of over 100 µM, a TGI [6] of over 100 µM and a TGI [7] of over 100 µM. For the same molecule, the TGI [9] was over 100 µM and the TGI [8] was over 100 µM.

`CC1=CC(=O)c2c(C=O)c(O)c(O)c(C(C)C)c2C1=O` was tested, and the TGI [1] was 57.4 µM, the TGI [2] was over 94.5 µM and the TGI [3] was 38.5 µM. The TGI [4] was 45.5 µM, the TGI [6] was over 74.1 µM and the TGI [9] was over 92.2 µM.

With `O=C1NC(c2c(Cl)cccc2Cl)Nc2ccccc21` (centres undefined) the TGI [1] was over 100 µM, the TGI [3] was over 100 µM and the TGI [4] was over 100 µM. It also gave a TGI [5] of over 100 µM, a TGI [6] of over 100 µM and a TGI [10] of over 100 µM. It also gave a TGI [7] of over 100 µM, a TGI [9] of over 100 µM and a TGI [8] of over 100 µM.

In the case of `COC(=O)C1=C(CS(=O)c2ccc([N+](=O)[O-])cc2[N+](=O)[O-])ON(C)C1c1ccccc1` (centres undefined), the TGI [1] is reported as over 65 µM, the TGI [2] is reported as over 56.7 µM and the TGI [3] is reported as over 100 µM. The TGI [5] was 55.2 µM, the TGI [6] was over 100 µM and the TGI [7] was over 100 µM. For the same molecule, the TGI [9] was over 100 µM and the TGI [8] was 48.4 µM.

In the case of `COc1ccc(NC(=O)CC(=O)N2N=C(N(CCC#N)c3cccc(C)c3)CC2c2ccccc2)cc1` (centres undefined), the TGI [1] is reported as over 100 µM, the TGI [2] is reported as over 100 µM and the TGI [3] is reported as over 100 µM. The TGI [4] was over 100 µM, the TGI [5] was over 100 µM and the TGI [6] was over 100 µM. For the same molecule, the TGI [7] was over 100 µM, the TGI [9] was over 100 µM and the TGI [8] was over 100 µM.

`COc1ccc(-c2cc(-c3cc(C)ccc3O)[nH]c(=O)n2)cc1` gave a TGI [1] of over 100 µM, a TGI [2] of over 100 µM and a TGI [3] of over 100 µM. For the same molecule, the TGI [4] was over 100 µM, the TGI [5] was over 100 µM and the TGI [6] was over 100 µM. The TGI [7] was over 100 µM and the TGI [8] was over 100 µM.

From PubChem BioAssay (NCI)
